Experimental data reported in patent publication US6468995B1, “Cephem compounds” (Fujisawa Pharmaceutical Co., Ltd., priority 1993, dated 2002).

Experiment: Stability test of the crystal
Type: physicochemical
Settings: crystal containing 1/3 isopropanol

## Nc1nc(/C(=N/O)C(=O)N[C@@H]2C(=O)N3C(C(=O)O)=C(SCc4cn[nH]c4)CS[C@H]23)cs1 [Example 37, 7β-[2-(2-aminothiazol-4-yl)-2-(Z)-(hydroxyimino)acetamido]-3-[(pyrazol-4-yl)methylthio]-3-cephem-4-carboxylic acid containing 1/3 isopropanol]
  stability in the stability test: stable
